From US20130178475A1, “sGC STIMULATORS” (IRONWOOD PHARMACEUTICALS, INC., priority 2010, published 2013)

Target: T1, soluble guanylate cyclase (sGC) (Homo sapiens, UniProt Q02108+Q02153)
T1 construct: endogenously expressing soluble guanylate cyclase (sGC); endogenous in cells; host or cells: HEK293
T1 sequence (Q02153 1-619): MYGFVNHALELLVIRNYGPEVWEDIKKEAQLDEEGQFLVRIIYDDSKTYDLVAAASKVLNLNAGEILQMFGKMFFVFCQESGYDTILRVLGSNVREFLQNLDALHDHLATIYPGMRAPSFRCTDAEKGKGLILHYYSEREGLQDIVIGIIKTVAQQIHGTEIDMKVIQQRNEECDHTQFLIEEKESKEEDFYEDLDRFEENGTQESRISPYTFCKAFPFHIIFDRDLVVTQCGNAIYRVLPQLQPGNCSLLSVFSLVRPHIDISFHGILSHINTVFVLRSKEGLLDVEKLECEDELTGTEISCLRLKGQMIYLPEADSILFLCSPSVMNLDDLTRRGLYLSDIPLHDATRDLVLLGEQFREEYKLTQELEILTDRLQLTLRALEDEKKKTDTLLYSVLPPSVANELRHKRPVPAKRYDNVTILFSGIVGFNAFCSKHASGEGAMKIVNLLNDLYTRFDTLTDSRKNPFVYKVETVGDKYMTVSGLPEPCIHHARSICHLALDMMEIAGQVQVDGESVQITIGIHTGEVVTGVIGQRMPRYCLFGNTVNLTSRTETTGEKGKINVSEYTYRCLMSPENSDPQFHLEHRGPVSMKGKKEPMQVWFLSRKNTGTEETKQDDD
T1 sequence (Q02108 1-690): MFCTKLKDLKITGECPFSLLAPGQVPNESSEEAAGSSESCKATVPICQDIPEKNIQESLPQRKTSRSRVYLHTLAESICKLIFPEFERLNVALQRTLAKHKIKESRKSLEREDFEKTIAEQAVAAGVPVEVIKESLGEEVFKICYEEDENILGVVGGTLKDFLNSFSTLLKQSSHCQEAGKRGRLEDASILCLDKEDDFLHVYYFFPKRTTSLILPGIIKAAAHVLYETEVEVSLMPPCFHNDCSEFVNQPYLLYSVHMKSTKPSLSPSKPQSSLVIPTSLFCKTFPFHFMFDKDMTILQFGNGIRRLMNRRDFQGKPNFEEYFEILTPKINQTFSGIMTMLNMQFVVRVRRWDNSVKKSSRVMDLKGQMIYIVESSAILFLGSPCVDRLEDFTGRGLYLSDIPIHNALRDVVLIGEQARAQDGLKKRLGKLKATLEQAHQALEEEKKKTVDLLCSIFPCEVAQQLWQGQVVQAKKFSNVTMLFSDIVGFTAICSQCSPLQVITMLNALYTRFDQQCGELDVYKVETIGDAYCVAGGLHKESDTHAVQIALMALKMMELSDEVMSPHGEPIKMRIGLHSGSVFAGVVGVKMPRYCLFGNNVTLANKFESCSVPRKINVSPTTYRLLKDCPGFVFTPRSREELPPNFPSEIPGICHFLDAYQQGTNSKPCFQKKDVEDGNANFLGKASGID
Experiment: sGC-HEK-cGMP assay
Type: cell-based
Details: HEK293 cells, 10 min incubation, intracellular cGMP by LC/MS; for Increase in cGMP Concentration Tested at 10 μM in HEK Assay: test compound 10 μM; for Increase in cGMP Concentration Tested at 30 μM in HEK Assay: test compound 30 μM
Method: Human embryonic kidney cells (HEK293), endogenously expressing soluble guanylate cyclase (sGC), were used to evaluate the activity of test compounds. Compounds stimulating the sGC receptor should cause an increase in the intracellular concentration of cGMP. […] Cells were then incubated for 15 minutes at 37° C. with 0.5 mM 3-isobutyl-1-methylxanthine (2004). Test article was then added to the assay mixture (2 μL) and incubated at 37° C. for 10 minutes. After the 10 minute incubation, the assay mixture was aspirated and 0.1M HCl (2004) was added to the cells. The plate was incubated at 4° C. for 30 minutes in the 0.1M HCl to stop the reaction and lyse the cells. The plates were then centrifuged at 1,200 g for 5 minutes at room temperature. Supernatants were collected and transferred to a new flat bottom 96 well plate for analysis. Vehicle controls were carried out using DMSO (1%). A known sGC stimulator, BAY 41-2272, was used as the positive control.
Samples were diluted with an equal volume of 1 M Ammonium Acetate (pH 7) to neutralize samples for better chromatography. A 2×cGMP standard curve was prepared in 0.1 M HCl and then diluted with an equal volume of 1 M Ammonium Acetate, with the following final concentrations in nM: 1024, 512, 256, 128, 64, 32, 16, 8, 4, 2, 1.
cGMP concentrations were determined from each sample using the LC/MS conditions (Table 2 below) and calculated standard curve. EC50 values were calculated from concentration-response curves generated with GraphPad Prism Software.

| SMILES | Increase in cGMP Concentration Tested at 10 μM in HEK Assay | Increase in cGMP Concentration Tested at 30 μM in HEK Assay |
| --- | --- | --- |
| Fc1ccccc1Cn1nc(-c2ncccn2)c2c1CCC2 [Compound I-2] | C (C represents an increase ranging from 10 fold to less than 20 fold) | D (D represents an increase ranging from 20 fold to less than 50 fold) |
| c1cnc(-c2nn(Cc3cccc4ccccc34)c3c2CCCC3)nc1 [Compound I-11] | A (A represents no increase or an increase ranging from more than 0 fold to less than 5 fold) | A (A represents no increase or an increase ranging from more than 0 fold to less than 5 fold) |
| Nc1nc(-c2nn(Cc3ccccc3F)c3c2CCCC3)nc(N)c1NC(=O)OCCCl [Compound I-25] | A (A represents no increase or an increase ranging from more than 0 fold to less than 5 fold) | B (B represents an increase ranging from 5 fold to less than 10 fold) |
| Nc1nc(-c2nn(Cc3ccccc3F)c3c2CCCC3)nc(N)c1N [Compound I-12] | A (A represents no increase or an increase ranging from more than 0 fold to less than 5 fold) | A (A represents no increase or an increase ranging from more than 0 fold to less than 5 fold) |
| Fc1ccccc1Cn1nc(-c2ncccn2)c2c1CCCCC2 [Compound I-18] | B (B represents an increase ranging from 5 fold to less than 10 fold) | C (C represents an increase ranging from 10 fold to less than 20 fold) |
| Nc1nc(-c2nn(Cc3ccccc3F)c3c2CCCC3)ncc1-c1ccncc1 [Compound I-27] | A (A represents no increase or an increase ranging from more than 0 fold to less than 5 fold) | A (A represents no increase or an increase ranging from more than 0 fold to less than 5 fold) |
| CC1(C)Cc2c(c(-c3ncccn3)nn2Cc2ccccc2F)C(O)C1 (centres unmarked) [Compound I-32] | A (A represents no increase or an increase ranging from more than 0 fold to less than 5 fold) | A (A represents no increase or an increase ranging from more than 0 fold to less than 5 fold) |
| Fc1ccc(Cn2nc(-c3ncccn3)c3c2CCCC3)cc1 [Compound I-6] | A (A represents no increase or an increase ranging from more than 0 fold to less than 5 fold) | A (A represents no increase or an increase ranging from more than 0 fold to less than 5 fold) |
| COc1cccc(C(=O)N2CCc3c(c(-c4ncccn4)nn3Cc3ccccc3F)C2)c1 [Compound I-58] | A (A represents no increase or an increase ranging from more than 0 fold to less than 5 fold) |  |
| c1cnc(-c2nn(Cc3cccc4ccsc34)c3c2CCCC3)nc1 [Compound I-10] | B (B represents an increase ranging from 5 fold to less than 10 fold) | B (B represents an increase ranging from 5 fold to less than 10 fold) |
| Fc1cccc(Cn2nc(-c3ncccn3)c3c2CCCC3)c1 [Compound I-7] | C (C represents an increase ranging from 10 fold to less than 20 fold) | D (D represents an increase ranging from 20 fold to less than 50 fold) |
| COC(=O)N(Cc1ccccc1F)c1c(N)nc(-c2nn(Cc3ccccc3F)c3c2CCCC3)nc1NCc1ccccc1F [Compound I-24] | A (A represents no increase or an increase ranging from more than 0 fold to less than 5 fold) | A (A represents no increase or an increase ranging from more than 0 fold to less than 5 fold) |
| COC(=O)Nc1c(N)nc(-c2nn(Cc3ccccc3F)c3c2CCCC3)nc1N [Compound I-13] | A (A represents no increase or an increase ranging from more than 0 fold to less than 5 fold) | A (A represents no increase or an increase ranging from more than 0 fold to less than 5 fold) |
| Nc1nc(-c2nn(Cc3ccccc3F)c3c2CCC3)nc(N)c1N [Compound I-35] | A (A represents no increase or an increase ranging from more than 0 fold to less than 5 fold) | A (A represents no increase or an increase ranging from more than 0 fold to less than 5 fold) |
| CS(=O)(=O)N1CCc2c(c(-c3ncccn3)nn2Cc2ccccc2F)C1 [Compound I-51, 1-(2-fluorobenzyl)-5-(methylsulfonyl)-3-(pyrimidin-2-yl)-4,5,6,7-tetrahydro-1H-pyrazolo[4,3-c]pyridine] | A (A represents no increase or an increase ranging from more than 0 fold to less than 5 fold) | A (A represents no increase or an increase ranging from more than 0 fold to less than 5 fold) |
| Fc1ccccc1Cn1nc(-c2ccncc2)c2c1CCCC2 [Compound I-49, 1-(2-fluorobenzyl)-3-(pyridin-4-yl)-4,5,6,7-tetrahydro-1H-indazole] | A (A represents no increase or an increase ranging from more than 0 fold to less than 5 fold) | A (A represents no increase or an increase ranging from more than 0 fold to less than 5 fold) |
| Nc1nc(-c2nn(Cc3ccccc3F)c3c2CCC3)nc(N)c1/N=N/c1ccccc1 [Compound I-34] | A (A represents no increase or an increase ranging from more than 0 fold to less than 5 fold) | A (A represents no increase or an increase ranging from more than 0 fold to less than 5 fold) |
| Fc1ccccc1Cn1nc(-c2ncccn2)c2c1CCSC2 [Compound I-15] | C (C represents an increase ranging from 10 fold to less than 20 fold) | C (C represents an increase ranging from 10 fold to less than 20 fold) |
| COC(=O)N(Cc1ccccc1F)c1c(N)nc(-c2nn(Cc3ccccc3F)c3c2CCCC3)nc1N [Compound I-23] | C (C represents an increase ranging from 10 fold to less than 20 fold) | C (C represents an increase ranging from 10 fold to less than 20 fold) |
| Fc1ccccc1Cn1nc(-c2cccnc2)c2c1CCCC2 [Compound I-48, 1-(2-fluorobenzyl)-3-(pyridin-3-yl)-4,5,6,7-tetrahydro-1H-indazole] | A (A represents no increase or an increase ranging from more than 0 fold to less than 5 fold) | A (A represents no increase or an increase ranging from more than 0 fold to less than 5 fold) |
| N#Cc1ccccc1Cn1nc(-c2ncccn2)c2c1CCCC2 [Compound I-8] | C (C represents an increase ranging from 10 fold to less than 20 fold) | D (D represents an increase ranging from 20 fold to less than 50 fold) |
